Experiments:
MDA-MB-435 = assay: NCI 60 five-dose screening, MDA-MB-435
Experimental: (§1) The National Cancer Institute's Developmental Therapeutic preclinical 60 human cancer cell lines were used for an in vitro screen. […] The one-dose and five-dose experiments were conducted according to standard NCI protocols.
(§2) The human tumor cell lines of the cancer screening panel are grown in RPMI 1640 medium containing 5% fetal bovine serum and 2 mM L-glutamine. For a typical screening experiment, cells are inoculated into 96 well microtiter plates in 100 μL at plating densities ranging from 5,000 to 40,000 cells/well depending on the doubling time of individual cell lines. After cell inoculation, the microtiter plates are incubated at 37° C., 5% CO2, 95% air and 100% relative humidity for 24 h prior to addition of experimental drugs.
(§3) After 24 h, two plates of each cell line are fixed in situ with TCA, to represent a measurement of the cell population for each cell line at the time of drug addition (Tz). […]
(§4) Following drug addition, the plates are incubated for an additional 48 h at 37° C., 5% CO2, 95% air, and 100% relative humidity. […] Bound stain is subsequently solubilized with 10 mM trizma base, and the absorbance is read on an automated plate reader at a wavelength of 515 nm. […] Using the seven absorbance measurements [time zero, (Tz), control growth, (C), and test growth in the presence of drug at the five concentration levels (Ti)], the percentage growth is calculated at each of the drug concentrations levels. Percentage growth inhibition is calculated as: [(Ti−Tz)/(C−Tz)]×100 for concentrations for which Ti>/=Tz [(Ti−Tz)/Tz]×100 for concentrations for which Ti<Tz.
(§5) Three dose response parameters are calculated for each experimental agent. […] The drug concentration resulting in total growth inhibition (TGI) is calculated from Ti=Tz. […] Values are calculated for each of these three parameters if the level of activity is reached; however, if the effect is not reached or is exceeded, the value for that parameter is expressed as greater or less than the maximum or minimum concentration tested.

HCT-15 = assay: NCI 60 five-dose screening, HCT-15
Experimental: as §1, §2, §3, §4, §5

SF-268 = assay: NCI 60 five-dose screening, SF-268
Experimental: as §1, §2, §3, §4, §5

DU-145 = assay: NCI 60 five-dose screening, DU-145
Experimental: as §1, §2, §3, §4, §5

HOP-62 = assay: NCI 60 five-dose screening, HOP-62
Experimental: (§6) The one-dose and five-dose experiments were conducted according to standard NCI protocols.
as §2
(§7) After 24 h, two plates of each cell line are fixed in situ with TCA, to represent a measurement of the cell population for each cell line at the time of drug addition (Tz). Experimental drugs are solubilized in dimethyl sulfoxide at 400-fold the desired final maximum test concentration and stored frozen prior to use. […]
as §4, §5

A498 = assay: NCI 60 five-dose screening, A498
Experimental: as §6, §2, §7, §4, §5

NCI-H23 = assay: NCI 60 five-dose screening, NCI-H23
Experimental: as §6, §2, §7, §4, §5

SK-MEL-5 = assay: NCI 60 five-dose screening, SK-MEL-5
Experimental: as §1, §2, §3, §4, §5

COLO 205 = assay: NCI 60 five-dose screening, COLO 205
Experimental: as §1, §2, §3, §4, §5

COc1ccc(SC2c3cc(OC)c(OC)cc3Oc3nc(N)c(C#N)c(N)c32)cc1 (stereo not drawn) [Compound 1, 2,4-diamino-7,8-dimethoxy-5-((4-methoxyphenyl)thio)-5H-chromeno[2,3-b]pyridine-3-carbonitrile]
GI50 (MDA-MB-435; Homo sapiens, MDA-MB-435, 48 h): 1500 nM
CC50 (MDA-MB-435; Homo sapiens, MDA-MB-435, 48 h, read-out: LC50): 5700 nM
TGI (MDA-MB-435; MDA-MB-435 (Melanoma), five-dose, 48 h): 2920 nM
TGI (HCT-15; HCT-15 (Colon Cancer), five-dose, 48 h): 2230 nM
GI50 (HCT-15; Homo sapiens, HCT-15, 48 h): 970 nM
CC50 (HCT-15; Homo sapiens, HCT-15, 48 h, read-out: LC50): 5020 nM
GI50 (SF-268; Homo sapiens, SF-268, 48 h): 1550 nM
CC50 (SF-268; Homo sapiens, SF-268, 48 h, read-out: LC50): 6050 nM
TGI (SF-268; SF-268 (CNS Cancer), five-dose, 48 h): 3070 nM
TGI (DU-145; DU-145 (Prostate Cancer), five-dose, 48 h): 3110 nM
GI50 (DU-145; Homo sapiens, DU-145, 48 h): 1730 nM
CC50 (DU-145; Homo sapiens, DU-145, 48 h, read-out: LC50): 5590 nM
TGI (HOP-62; HOP-62 (Non-small cell Lung), five-dose, 48 h): 3090 nM
GI50 (HOP-62; Homo sapiens, HOP-62, 48 h): 1700 nM
CC50 (HOP-62; Homo sapiens, HOP-62, 48 h, read-out: LC50): 5610 nM
TGI (A498; A498 (Renal Cancer), five-dose, 48 h): 2850 nM
GI50 (A498; Homo sapiens, A498, 48 h): 1420 nM
CC50 (A498; Homo sapiens, A498, 48 h, read-out: LC50): 5730 nM
GI50 (NCI-H23; Homo sapiens, NCI-H23, 48 h): 1450 nM
CC50 (NCI-H23; Homo sapiens, NCI-H23, 48 h, read-out: LC50): 6250 nM
TGI (NCI-H23; NCI-H23 (Non-small cell Lung), five-dose, 48 h): 3010 nM
GI50 (SK-MEL-5; Homo sapiens, SK-MEL-5, 48 h): 1500 nM
CC50 (SK-MEL-5; Homo sapiens, SK-MEL-5, 48 h, read-out: LC50): 5330 nM
TGI (SK-MEL-5; SK-MEL-5 (Melanoma), five-dose, 48 h): 2820 nM
TGI (COLO 205; COLO 205 (Colon Cancer), five-dose, 48 h): 2650 nM
GI50 (COLO 205; Homo sapiens, COLO 205, 48 h): 1290 nM
CC50 (COLO 205; Homo sapiens, COLO 205, 48 h, read-out: LC50): 5430 nM

Reference: US11814392B2, “Chromenopyridine-based compounds and methods of making and use thereof” (Rosalind Franklin University of Medicine and Science, priority 2020, dated 2023)
